target: T1, CYP4A (Homo sapiens, UniProt Q02928); assay: CYP4A enzyme assay (Luciferin-ME luminescence, CYP4A bactosome); type: biochemical; settings: compound concentration 5 μM; 25%-50%; read-out: % Inhibition 25%-50%
T1 construct: host or cells: bactosome, i.e. bacterial membrane preparation (own knowledge of the term)
T1 sequence (Q02928 5-519): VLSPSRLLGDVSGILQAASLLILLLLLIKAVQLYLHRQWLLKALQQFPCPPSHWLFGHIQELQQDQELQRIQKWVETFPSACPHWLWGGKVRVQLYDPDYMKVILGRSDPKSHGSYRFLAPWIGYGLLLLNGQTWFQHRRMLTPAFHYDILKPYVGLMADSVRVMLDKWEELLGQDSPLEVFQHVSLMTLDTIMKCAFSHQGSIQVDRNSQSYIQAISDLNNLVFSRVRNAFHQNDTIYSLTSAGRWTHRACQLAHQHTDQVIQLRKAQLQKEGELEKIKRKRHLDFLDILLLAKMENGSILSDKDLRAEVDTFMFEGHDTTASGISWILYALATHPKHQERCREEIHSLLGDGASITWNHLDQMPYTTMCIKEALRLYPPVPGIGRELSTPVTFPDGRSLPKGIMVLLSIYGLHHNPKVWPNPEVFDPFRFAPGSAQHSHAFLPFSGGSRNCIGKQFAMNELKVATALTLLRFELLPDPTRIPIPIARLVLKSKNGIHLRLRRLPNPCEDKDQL
Protocol: A commercially available reagent was used for the reagent used in the experiment, and it was manufactured and used if necessary. The device used for activity measurement was EnVision of PerkinElmer or SpectraMax of MOLECULAR DEVICES.
First, CYP4A bactosome and synthetic compound (5 μM) were mixed in assay buffer (100 mM KPO4, 0.1% BSA, 1 mM DTT) in a 384-well plate (white opaque ploystyrene nontreated flat-bottom well), and then reacted at room temperature for 15 minutes. After adding 5 mM Luciferin-ME and NADPH Regeneration system (10× sol.A, 20× sol.B in assay buffer, Cat. Number: V865B, Promega), leave it at room temperature for 30 minutes to allow the CYP4A reaction to occur sufficiently, by adding the Luciferin Detection reagent, the CYP4A reaction was finished, luminescence reaction was induced, and the reaction was carried out at room temperature for 15 minutes. The degree of inhibition of CYP4A activity was measured by comparing the luminescence values from each well with a microplate reader.

Question: For `Cc1cc(N2CCN(C(=O)C3CCCN(S(=O)(=O)c4ccccc4)C3)CC2)c2ccccc2n1` (stereo not drawn) [Formula 19, (4-(2-methylquinolin-4-yl)piperazin-1-yl) (1-(phenylsulfonyl)piperidin-3-yl) methanone], which inhibition at 5 µM is on record?
Answer: 25 to 50%

Question: `Cc1cc(N2CCN(C(=O)C3CCCN(S(=O)(=O)c4ccc(Oc5ccccc5)cc4)C3)CC2)c2ccccc2n1` (stereo not drawn) [Formula 34, (4-(2-methylquinolin-4-yl)piperazin-1-yl) (1-(4-phenoxyphenylsulfonyl)piperidin-3-yl) methanone] was tested. Which inhibition at 5 µM did it give?
Answer: 25 to 50%

Question: How did the inhibition at 5 µM turn out when `Cc1cc(N2CCN(C(=O)C3CCCN(S(=O)(=O)c4c(F)c(F)c(F)c(F)c4F)C3)CC2)c2ccccc2n1` (stereo not drawn) [Formula 30, (4-(2-methylquinolin-4-yl)piperazin-1-yl) (1-(perfluorophenylsulfonyl)piperidin-3-yl) methanone] was run?
Answer: 25 to 50%

Question: `Cc1cc(N2CCN(C(=O)C3CCCN(S(=O)(=O)c4ccc(Br)cc4)C3)CC2)c2ccccc2n1` (stereo not drawn) [Formula 40, (1-((4-bromophenyl)sulfonyl)piperidin-3-yl) (4-(2-methylquinolin-4-yl)piperazin-1-yl)methanone] was tested. Which inhibition at 5 µM did it give?
Answer: 25 to 50%

same assay, conditions: compound concentration 5 μM; 75% or more; read-out: % Inhibition 75% or more

Question: For `O=C(C1CCCN(S(=O)(=O)c2ccc(Br)cc2)C1)N1CCN(c2ccnc3cc(F)ccc23)CC1` (stereo not drawn) [Formula 56, (1-(4-bromophenylsulfonyl)piperidin-3-yl) (4-(7-fluoroquinolin-4-yl)piperazin-1-yl)methanone], which inhibition at 5 µM is on record?
Answer: ≥ 75%

Question: Which inhibition at 5 µM does the source give for `CC(=O)Nc1ccc(S(=O)(=O)N2CCCC(C(=O)N3CCN(c4ccnc5cc(Cl)ccc45)CC3)C2)cc1` (stereo not drawn) [Formula 116, N-(4-(3-(4-(7-chloroquinolin-4-yl)piperazine-1-carbonyl)piperidin-1-ylsulfonyl)phenyl) acetamide] here?
Answer: ≥ 75%

Question: How did the inhibition at 5 µM turn out when `O=C(C1CCCN(S(=O)(=O)c2ccc([N+](=O)[O-])cc2)C1)N1CCN(c2ccnc3cc(F)ccc23)CC1` (stereo not drawn) [Formula 50, (4-(7-fluoroquinolin-4-yl)piperazin-1-yl) (1-(4-nitrophenylsulfonyl)piperidin-3-yl) methanone] was run?
Answer: ≥ 75%

Question: How did the inhibition at 5 µM turn out when `O=C(C1CCCN(S(=O)(=O)c2ccc(-c3cccnc3)cc2)C1)N1CCN(c2ccnc3ccccc23)CC1` (stereo not drawn) [Formula 114, (1-(4-(pyridin-3-yl)phenylsulfonyl)piperidin-3-yl) (4-(quinolin-4-yl)piperazin-1-yl) methanone] was run?
Answer: ≥ 75%

Question: Which inhibition at 5 µM does the source give for `O=C(C1CCCN(S(=O)(=O)c2ccc(O)cc2)C1)N1CCN(c2ccnc3cc(Cl)ccc23)CC1` (stereo not drawn) [Formula 5, (4-(7-chloroquinolin-4-yl)piperazin-1-yl) (1-((4-hydroxyphenyl)sulfonyl)piperidin-3-yl) methanone] here?
Answer: ≥ 75%

Question: `Cc1cc(N2CCN(C(=O)C3CCCN(S(=O)(=O)c4ccc([N+](=O)[O-])cc4)C3)CC2)c2ccccc2n1` (stereo not drawn) [Formula 18, (4-(2-methylquinolin-4-yl)piperazin-1-yl) (1-(4-nitrophenylsulfonyl)piperidin-3-yl) methanone] was tested. Which inhibition at 5 µM did it give?
Answer: ≥ 75%

Question: Which inhibition at 5 µM does the source give for `CS(=O)(=O)c1ccc(S(=O)(=O)N2CCCC(C(=O)N3CCN(c4ccnc5cc(Cl)ccc45)CC3)C2)cc1` (stereo not drawn) [Formula 11, (4-(7-chloroquinolin-4-yl)piperazin-1-yl) (1-(4-(methylsulfonyl)phenylsulfonyl)piperidin-3-yl) methanone] here?
Answer: ≥ 75%

Question: For `Cc1cc(N2CCN(C(=O)C3CCCN(S(=O)(=O)c4ccc(-c5ccccc5)cc4)C3)CC2)c2ccccc2n1` (stereo not drawn) [Formula 38, (4-(2-methylquinolin-4-yl)piperazin-1-yl) (1-(4-phenylbenzenesulfonyl)piperidin-3-yl) methanone], which inhibition at 5 µM is on record?
Answer: ≥ 75%

Question: How did the inhibition at 5 µM turn out when `O=C(C1CCCN(S(=O)(=O)c2ccc(-c3ccncc3)cc2)C1)N1CCN(c2ccnc3cc(F)ccc23)CC1` (stereo not drawn) [Formula 106, (4-(7-fluoroquinolin-4-yl)piperazin-1-yl) (1-(4-(pyridin-4-yl)phenylsulfonyl)piperidin-3-yl) methanone] was run?
Answer: 0%

Question: `N#Cc1ccc(S(=O)(=O)N2CCCC(C(=O)N3CCN(c4ccnc5cc(Cl)ccc45)CC3)C2)cc1` (stereo not drawn) [Formula 10, 4-(3-(1-(7-chloroquinolin-4-yl)piperazine-4-carbonyl)piperidin-1-ylsulfonyl)benzonitrile] was tested. Which inhibition at 5 µM did it give?
Answer: ≥ 75%

Question: `CN(C)c1ccc(S(=O)(=O)N2CCC[C@H](C(=O)N3CCN(c4ccnc5ccccc45)CC3)C2)cc1` [Formula 80, (S)-(1-(4-(dimethylamino)phenylsulfonyl)piperidin-3-yl) (4-(quinolin-4-yl)piperazin-1-yl)methanone] was tested. Which inhibition at 5 µM did it give?
Answer: ≥ 75%

Question: Which inhibition at 5 µM does the source give for `CN(C)c1ccc(S(=O)(=O)N2CCCC(C(=O)N3CCN(c4ccnc5cc(Cl)ccc45)CC3)C2)cc1` (stereo not drawn) [Formula 4, (4-(7-chloroquinolin-4-yl)piperazin-1-yl) (1-((4-(dimethylamino)phenyl)sulfonyl)piperidin-3-yl) methanone] here?
Answer: ≥ 75%

Question: For `CC(=O)c1ccc(S(=O)(=O)N2CCCC(C(=O)N3CCN(c4ccnc5cc(F)ccc45)CC3)C2)cc1` (stereo not drawn) [Formula 54, 1-(4-(3-(1-(7-fluoroquinolin-4-yl)piperazine-4-carbonyl)piperidin-1-ylsulfonyl)phenyl) ethanone], which inhibition at 5 µM is on record?
Answer: ≥ 75%

Question: With `O=C(C1CCCN(S(=O)(=O)c2cccc([N+](=O)[O-])c2)C1)N1CCN(c2ccnc3cc(F)ccc23)CC1` (stereo not drawn) [Formula 51, (4-(7-fluoroquinolin-4-yl)piperazin-1-yl) (1-(3-nitrophenylsulfonyl)piperidin-3-yl) methanone] as the compound, how does the inhibition at 5 µM read?
Answer: ≥ 75%

Question: With `O=C(C1CCCN(S(=O)(=O)c2ccc(-c3ccccc3)cc2)C1)N1CCN(c2ccnc3ccccc23)CC1` (stereo not drawn) [Formula 84, (4-(quinolin-4-yl)piperazin-1-yl) (1-(4-phenylbenzenesulfonyl)piperidin-3-yl) methanone] as the compound, how does the inhibition at 5 µM read?
Answer: ≥ 75%

same assay, conditions: compound concentration 5 μM; '50%-75%'; read-out: % Inhibition 50%-75%

Question: `CN(C)c1ccc(S(=O)(=O)N2CCCC(C(=O)N3CCN(c4cc(C(F)(F)F)nc5ccccc45)CC3)C2)cc1` (stereo not drawn) [Formula 67, (1-(4-(dimethylamino)phenylsulfonyl)piperidin-3-yl) (4-(2-(trifluoromethyl)quinolin-4-yl)piperazin-1-yl) methanone] was tested. Which inhibition at 5 µM did it give?
Answer: 50 to 75%

Question: Which inhibition at 5 µM does the source give for `COC(=O)c1ccc(S(=O)(=O)N2CCCC(C(=O)N3CCN(c4ccnc5cc(Cl)ccc45)CC3)C2)cc1` (stereo not drawn) [Formula 12, methyl 4-((3-(1-(7-chloroquinolin-4-yl)piperazine-1-carbonyl)piperidin-1-yl)sulfonyl)benzoate] here?
Answer: 50 to 75%

Question: Which inhibition at 5 µM does the source give for `Cc1cc(N2CCN(C(=O)C3CCCN(S(=O)(=O)c4ccc(-c5cncnc5)cc4)C3)CC2)c2ccccc2n1` (stereo not drawn) [Formula 103, (4-(2-methylquinolin-4-yl)piperazin-1-yl) (1-((4-(pyrimidin-5-yl)phenyl)sulfonyl)piperidin-3-yl) methanone] here?
Answer: 50 to 75%

Question: `Cc1cc(N2CCN(C(=O)C3CCCN(S(=O)(=O)c4cccc(O)c4)C3)CC2)c2ccccc2n1` (stereo not drawn) [Formula 93, (1-(3-hydroxyphenylsulfonyl)piperidin-3-yl) (4-(2-methylquinolin-4-yl)piperazin-1-yl) methanone] was tested. Which inhibition at 5 µM did it give?
Answer: 50 to 75%

Question: `COc1ccc2c(N3CCN(C(=O)C4CCCN(S(=O)(=O)c5ccc(N(C)C)cc5)C4)CC3)ccnc2c1` (stereo not drawn) [Formula 90, (1-(4-(dimethylamino)phenylsulfonyl)piperidin-3-yl) (4-(7-methoxyquinolin-4-yl)piperazin-1-yl) methanone] was tested. Which inhibition at 5 µM did it give?
Answer: 50 to 75%

— patent US12479821B2 (MBD CO., LTD., priority 2019, dated 2025)
